Results taken from patent US12589103B2, “Antimicrobial and antiviral effects of C2-C7 alkyl boronic acids” (CORNELL UNIVERSITY, priority 2019, dated 2026).
“Also recorded” adds a separate entry of the source.

Legend:
[1] = tested on: AIEC E. coli from dogs (MDR and non-MDR strains); assay: Growth of MDR and non-MDR E. coli associated with Granulomatous colitis in dogs; assay type: cell-based; settings: 40 mM, LB broth, 48 hrs
Method: (§1) The ability of C1-C3 alkyl boronic acids and BA to impact the growth of MDR E. coli isolated from people and dogs was evaluated using a temperature controlled 96-well multiplate incubator at 37° C. over 48 hrs. Growth in media (LB broth) with and without ABA C2-6 (40 mM) was monitored by readings at OD600 with the AUC of the growth curve calculated.
Non-MDR strains KD1, KD2, and KD3 were also evaluated.

[2] = tested on: enteric pathogens (E. coli, Salmonella, Listeria monocytogenes, Klebsiella); assay: Bacterial growth panel, OD600 growth-curve AUC ratio (heat map); assay type: cell-based
[3] = tested on: Klebsiella pneumonia (13Dk); assay: Growth in M9 media; settings: EBA 10-40 mM
Listeria monocytogenes = assay: Bacterial growth panel, Listeria; assay type: cell-based
Method: The control sample contained 40 mM NaCl.
Growth of bacteria with or without addition of C2-C8 C10, and C12 alkyl boronic acids, BA, or FMPBA was monitored by readings at OD600. […] The area under the curve (“AUC”) of the growth curve was calculated and the results were expressed as AUC+test compound:AUC−test compound.

Feline Lung cells = assay: Cytotoxicity in FIPV infected Feline Lung cells
[4] = tested on: cancer associated E. coli (HM288); assay: Growth in M9 media; settings: EBA 10-40 mM
[5] = assay type: in vivo, mouse
Description: This novel observation of an anti-inflammatory effect of EBA was corroborated in subsequent collaborative studies. […] These experiments confirm that EBA has an anti-inflammatory effect in two distinct murine models of microbially driven IBD.

Salmonella = assay: Soft agar motility assay, Salmonella; assay type: cell-based; settings: % motility of the control
Method: The ability of ABA C1-3 and BA to impact the motility of E. coli and Salmonella was evaluated using sloppy agar treated with and without BA and C1-C3 alkyl boronic acids. Motility is strongly linked to the virulence phenotype of these bacterial strains. E. coli was grown overnight at 37° C. in LB broth. Soft agar plates (1% tryptone, 0.5% NaCl, 0.25% agar) were prepared the day before the assay was carried out. Sterile NaCl (control), boric or boronic acid stock solution was added into the agar right before pouring the plates. The overnight cultures of E. coli were transferred (3 μl) on to the center of each plate, followed by incubation of the plates at 37° C. for 10 h. E. coli motility was quantified by measuring the diameter of the circular swarming area formed by the growing motile bacteria.

[6] = tested on: Gram Positive aerobes and probiotic species (Lactobacillus, Bifidobacteria); assay: Bacterial growth panel, impact on non-target species (selectivity); assay type: cell-based
[7] = tested on: AIEC E. coli isolated from people (MDR and non-MDR strains); assay: Growth of MDR and non-MDR E. coli associated with Crohn's disease; assay type: cell-based; settings: 40 mM, LB broth, 48 hrs
Method: as §1

CCB(O)O [EBA, ethyl boronic acid]
growth inhibition of canine Granulomatous colitis associated AIEC, MDR and non-MDR [1]: more effective than BA over a wider range of AIEC, including MDR and non-MDR strains | antibacterial activity / potency against enteric pathogens (growth, AUC+test compound:AUC−test compound) ([2]; 40 mM (BA, EBA, PBA), 20 mM (BBA), 10 mM (PeBA), 5 mM (HBA, SBA), 1 mM (OBA), 0.5 mM (DBA), 2 mM (DoDBA), 20 mM (FMPBA), 24-48 hrs): higher potency against enteropathogens | selectivity for Gram Negative enteropathogens ([2]; growth panel): highest | inhibition of growth of Klebsiella pneumonia 13Dk [3]: effective | selectivity of activity against Listeria monocytogenes (Listeria monocytogenes): selectivity apparent | cytotoxicity in antiviral assay (Feline Lung cells): Cytotoxicity was not observed at antiviral doses | inhibition of growth of cancer associated E. coli HM288 [4]: effective | intestinal inflammation, fecal lipocalin and histopathology ([5]; SIHUMI colonized 11-10−/− mouse): markedly reduced intestinal inflammation | adverse or pro-inflammatory effects ([5]; mouse, in vivo): no adverse or pro-inflammatory effects | motility of Salmonella (Salmonella): highly effective at blocking motility of Salmonella | degree of cytopathic effect (Caco-2 cells): EBA<BA<PBA | selectivity against Probiotic spp ([6]; compared with BA): more selective than BA | selectivity versus Gram Positive aerobes ([6]; compared with BA): more selective than BA | selectivity: impact on Gram Positive aerobes and probiotic species ([6]; same concentrations as growth panel): less impact on probiotic Lactobacillus, Bacillus, and Gram Positive aerobes; also recorded: more selective than DoDBA; also recorded: more selective than C3-C7 alkyl boronic acids | growth inhibition of Crohn's disease associated AIEC, MDR and non-MDR [7]: more effective than BA over a wider range of AIEC, including MDR and non-MDR strains
